Patent US20100129434A1, “COMPOSITIONS AND METHODS FOR THE TREATMENT OF MUCORMYCOSIS AND OTHER FUNGAL DISEASES” (priority 2006, published 2010)
≈ marks a conversion by molar mass, not a printed value. Entries after “also recorded” stand apart in the source; their conditions may differ.

Legend:
Mucorales = test: Deferasirox susceptibilities of multiple clinical isolates of Mucorales (summary); format: cell-based
Description: Minimum inhibitory concentration (MIC) and minimum fungicidal concentration (MFC) were determined for deferasirox by the method of Espinel-Ingroff using R. oryzae spores starved for iron (Espinel-Ingroff, (2001), supra). Cidality was defined as a <4-fold difference between MIC and MFC.
We next determined the deferasirox susceptibilities of multiple clinical isolates of Mucorales (Table 3). The MIC9OS of deferasirox against Mucor, non-oryzae Rhizopus spp., and R. oryzae were 3.12 to 6.25 μg/ml. MFCs were similar to MICs, and deferasirox was cidal for 28/29 (97%) of isolates. Of note, slight growth was seen within the first twelve hours even at extremely high concentrations of deferasirox. […] Furthermore, the MICs and MFCs of deferasirox against these isolates were well below clinically achievable peak (˜38 μg/ml) and trough serum levels (˜17 μg/ml) of the drug at steady state when administered at the FDA-approved starting dose (20 mg/kg/d).

rFTR1 = test: Expression analysis of the high affinity iron permease gene (rFTR1) by RT-PCR; format: cell-based, Rhizopus oryzae; settings: R. oryzae 99-880 mycelia; 2 mM deferasirox plus 350 μM ferric chloride, 1 h at 37° C.
Description: R. oryzae 99-880 plugs taken from a confluent PDA plate were grown in potato dextrose broth overnight at 37° C. with shaking. Mycelia were collected aseptically and transferred to fresh PDB flasks containing 350 μM ferric chloride (to suppress the expression of rFTR1), 350 μM ferric chloride plus 2 mM deferasirox to test iron chelation, or 2 mM deferasirox plus 6 mM ferric chloride to supersaturate the added deferasirox. The flasks were incubated for 1 h at 37° C. with shaking. Mycelia were collected by filtration and ground in liquid nitrogen using mortar and pestle. Total RNA was extracted using RNeasy Plabt Mini™ kit (Qiagen®) with RLC buffer. The RNA was reverse-transcribed with oligo(dT) primer using the SuperScript™ First-Strand Synthesis System (Invitrogen®) to generate first-strand cDNA. The products were diluted and used in PCR to detect the expression of FTR1 of R. oryzae and 18 s rDNA gene. The sequences of the PCR primers are as follows: sense primer 5′-[…] -3′ and anti-sense primer 5′-[…] -3′ for rFTR1 to amplify of R. oryzae; and sense primer 5′-[…]′T′[…] -3′ and anti-sense primer 5′-[…] -3′ for 18 s rDNA gene. The PCR products were separated on a 2% agarose gel containing 0.1 μg/ml ethidium bromide. Both primer sets were designed to amplify a 400 by bands. […]

`O=C(O)c1ccc(-n2nc(-c3ccccc3O)nc2-c2ccccc2O)cc1` [Deferasirox, 4-[3,5-Bis(2-hydroxyphenyl)-1H-1,2,4-triazol-1-yl]-benzoic acid] was tested, and the “isolates for which deferasirox was cidal” value (Mucorales; 28/29 isolates) was 97%, the MIC (Mucorales; Rhizopus arrhizus, read-out: MIC90s against Mucor, non-oryzae Rhizopus spp., and R. oryzae) was 3.12 to 6.25 µg/mL (≈ 8.36 to 16.7 µM) and the dependence of cidality (Mucorales; slight growth within first twelve hours, fungi dead by 24 hours) was “time-dependent, rather than concentration-dependent”. For the same compound, the “rFTR1 gene expression (RT-PCR)” value (rFTR1) was “expressed; also recorded: induces rFTR1 gene expression”.
